From patent US20120028967A1 (priority 2009, published 2012)
pIC50: −log10 of the molar value. Where a name gives a salt, the structure may show the parent alone.

Biological target: α7-subtype of nicotinic receptors (Rattus norvegicus, UniProt Q05941)
Experiment: biochemical
Type: binding

Sequence of α7-subtype of nicotinic receptors (Q05941 23-502): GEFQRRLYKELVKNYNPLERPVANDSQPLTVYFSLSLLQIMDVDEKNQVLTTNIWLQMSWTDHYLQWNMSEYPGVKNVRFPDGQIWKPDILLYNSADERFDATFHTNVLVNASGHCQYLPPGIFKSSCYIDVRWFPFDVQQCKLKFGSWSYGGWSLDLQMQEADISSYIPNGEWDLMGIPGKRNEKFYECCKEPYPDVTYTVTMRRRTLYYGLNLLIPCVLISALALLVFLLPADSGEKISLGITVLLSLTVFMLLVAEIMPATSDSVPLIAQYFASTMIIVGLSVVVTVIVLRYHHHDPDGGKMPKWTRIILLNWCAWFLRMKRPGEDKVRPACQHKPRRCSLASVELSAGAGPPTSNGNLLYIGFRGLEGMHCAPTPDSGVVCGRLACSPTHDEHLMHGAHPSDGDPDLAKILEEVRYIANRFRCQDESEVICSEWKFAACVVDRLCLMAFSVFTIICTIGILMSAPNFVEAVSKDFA

Compound: Brc1cnc(N2CCN3CCC2CC3)nc1 [Compound 1, 4-(5-Bromo-pyrimidin-2-yl)-1,4-diaza-bicyclo[3.2.2]nonane fumaric acid salt]
- pIC50: 6.55

Compound: Ic1cnc(N2CCN3CCC2CC3)nc1 [Compound 2, 4-(5-Iodopyrimidin-2-yl)-1,4-diazabicyclo[3.2.2]nonane fumaric acid salt]
- pIC50: 7.42

Compound: Clc1cnc(N2CCN3CCC2CC3)nc1 [Compound 3, 4-(5-Chloropyrimidin-2-yl)-1,4-diazabicyclo[3.2.2]nonane fumaric acid salt]
- pIC50: 6.72
